# Assay results from US20220241236A1, “DIETARY BUTYRATE AND ITS USES” (SOCIETE DES PRODUITS NESTLE S.A., priority 2019, published 2022).
# “Also recorded” adds a separate entry of the source.
# What was measured:
# [1] = test system: rabbit gastric lipase (RGL) followed by porcine pancreatic lipase (PPL); assay: Sequential in vitro digestion SGF (RGL) followed by SIF (PPL), pH-stat; format: in vitro ADME
# Protocol: (§1) 10 wt % oil in water emulsions stabilised by 0.3 wt % polyoxyethylene sorbitan mono-oleate (Tween® 80) were prepared by mixing the Tween 80 into the oil phase at 40° C., then mixing with the water phase using a magnetic stirrer. An emulsion was then created using a Hielscher UP 400S ultrasonic probe homogeniser equipped with a 5 mm diameter rod-like probe by applying 100% amplitude at 100% cycle for 2 minutes whilst the sample was cooled using ice water.
# (§2) The lipid emulsion (2 mL) containing 200 mg of fat was subjected to gastrointestinal in vitro lipolysis. […] For gastric digestion, the sample was incubated for 90 minutes with 8.5 mL of simulated gastric fluid (SGF), which consisted of 150 mM NaCl, 450 U/mL pepsin, 18 U/mL rabbit gastric lipase at 37° C. and a pH of 5.5.
# The intestinal digestion step was performed in the pH stat where the pH was kept constant at 6.8 by addition of NaOH (0.05 M). […] The intestinal digestion step starts when the temperature reaches 37±0.5° C. The pH was adjusted to pH 6.8 and after incubation of two minutes at this pH and temperature, a pancreatin solution (5 mM tris, 150 mM NaCl at pH 6.8) was added. The final composition of the intestinal fluid was 10 mM CaCl2, 12 mM mixed bile salts, 0.75 mM phospholipid, 150 mM NaCl and 4 mM tris(hydroxymethyl)aminomethane buffer. The intestinal digestion step was carried out for 3 hours in a titration manager from Radiometer. During the intestinal phase of digestion, the kinetics of digestion were followed using a pH-stat (TIM856, Radiometer) technique and expressed as titratable acid (rather than fatty acid) that was calculated by the equation:
# TA: Total titratable acid released, mmol; VNaoH: volume of NaOH used to titrate the released acid in 3 h, mL.
# [2] = target: T1, porcine pancreatic lipase (from pancreatin) (Sus scrofa, UniProt P00591); assay: In vitro lipolysis in simulated intestinal fluid (SIF model), pH-stat; format: in vitro ADME; conditions: SIF alone; emulsion with 200 mg fat; pH 6.8, 37° C.
# T1 construct: pancreatin (Porcine, USP×8, P7585); purchased Sigma-Aldrich P7585; host or cells: porcine pancreas extract (pancreatin)
# T1 sequence (P00591 1-450): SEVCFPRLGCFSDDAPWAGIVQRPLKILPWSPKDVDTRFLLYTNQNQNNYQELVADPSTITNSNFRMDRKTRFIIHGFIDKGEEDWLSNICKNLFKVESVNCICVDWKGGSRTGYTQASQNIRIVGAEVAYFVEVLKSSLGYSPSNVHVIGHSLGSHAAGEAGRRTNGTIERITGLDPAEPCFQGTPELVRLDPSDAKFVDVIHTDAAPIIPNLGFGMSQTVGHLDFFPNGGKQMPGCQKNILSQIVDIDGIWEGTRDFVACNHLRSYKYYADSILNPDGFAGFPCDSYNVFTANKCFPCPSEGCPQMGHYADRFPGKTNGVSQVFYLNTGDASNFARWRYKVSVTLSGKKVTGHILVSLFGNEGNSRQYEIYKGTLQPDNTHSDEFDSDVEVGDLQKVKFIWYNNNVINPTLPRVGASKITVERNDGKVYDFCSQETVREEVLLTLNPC
# T1 sequence (P02703 23-112 partner): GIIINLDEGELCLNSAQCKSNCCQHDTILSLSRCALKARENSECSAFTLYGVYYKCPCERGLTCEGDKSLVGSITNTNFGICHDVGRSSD
# Protocol: as §1, §2
# The intestinal digestion step was performed in the pH stat where the pH was kept constant at 6.8 by addition of NaOH (0.05 M). […] The intestinal digestion step starts when the temperature reaches 37±0.5° C. The pH was adjusted to pH 6.8 and after incubation of two minutes at this pH and temperature, a pancreatin solution (5 mM tris, 150 mM NaCl at pH 6.8) was added. […] During the intestinal phase of digestion, the kinetics of digestion were followed using a pH-stat (TIM856, Radiometer) technique and expressed as titratable acid (rather than fatty acid) that was calculated by the equation: […]
smiles,measurement,setting,value
CCCC(=O)OCC(COC(=O)CCC)OC(=O)CCC [tributyrin],initial lipolysis rate in SIF,[1]; SGF-SIF sequential digestion (after pre-exposure to RGL),44.1 ± 8.8 µmol/min
same,extent of gastric lipolysis / hydrolysis in the stomach,[1]; gastric compartment of the model,considerable digestion; also recorded: extensive hydrolysis in the stomach
same,lipolysis by gastric lipase,[1]; indicated by decreased total fatty acid release in SIF after RGL pre-exposure,~60%
same,initial rate of lipolysis,[2],223 ± 59 µmol/min
